# Experimental data as given in paper PMC8878317, “Chemogenomics identifies acetyl-coenzyme A synthetase as a target for malaria treatment and prevention” (Cell Chemical Biology, 2022).
# Like-named read-outs stand apart in the source and are kept apart here.
# Assays:
# PfAcAS WT = PfAcAS WT (Plasmodium falciparum, UniProt C6KTB4); test: PfAcAS mode of inhibition studies (EnzChek); assay type: biochemical, P. falciparum; parameters: key to MoI (mode of inhibition), Kis/Kii,acetate / MoI (mode of inhibition), Ki,ATP / MoI (mode of inhibition), Kis,acetate / MoI (mode of inhibition), Ki,CoA: UC = uncompetitive; MI = mixed inhibition; C = competitive
# Protocol: (§1) Steady-state kinetic measurements were conducted at room temperature using a PheraStar plate reader (BMG). The first step of the reaction of PfAcAS, which produces inorganic pyrophosphate (PPi) that is converted to two molecules of inorganic phosphate using a pyrophosphatase enzyme, was continuously monitored using the EnzChek Phosphate Assay Kit, which gives an absorbance readout at 360 nm (Figure 4A) ([Webb, 1992]). […] By adding CoA, the reaction rapidly proceeds to the second step resulting in further release of pyrophosphate, making the EnzChek assay a suitable option to continuously monitor the activity of PfAcAS. Typical kinetic assays were carried out in clear, flat-bottom, polystyrene, 384-well plates (Greiner) in an 80 μL reaction volume containing 100 mM HEPES (pH7.4), 100 mM NaCl, 250 mM KCl, 50 mM MgCl2, 1 mM DTT, 0.004% Tween 20, 0.5 U/mL pyrophosphatase, 0.1 mM MESG, 0.5 U/mL PNP, 2 mM ATP, 2 mM acetate, 0.5 mM CoA and 5 nM recombinant PfAcAS WT or 10 nM recombinant PfAcAS A597V or T648M. Assays were performed by adding 40 μL of a 2-times concentrated substrate mixture including MESG to all wells, and the reactions started by adding 40 μL of a 2-times concentrated reaction mixture containing all other components. The reactions were carried out for 2 to 4 hr with absorbance readings at 360 nm every two to four minutes. Reaction rates were extracted from the linear phase of activity, usually using 10 to 20 points between times of 30 and 100 min of the reactions. Using a phosphate standard curve obtained under the same buffer conditions used for the PfAcAS reactions (Figure S5A), the rates were then converted to velocity per second, conversion of one nanomolar of phosphate, per nanomolar of enzyme, per second. The substrates Km values were determined by varying the concentration of one of the substrates at saturating concentration of the other two substrates. Steady-state data were fitted using the nonlinear, least-squares, curve-fitting programs of Sigma-Plot for Windows, version 14.0. Individual saturation curves were fit to Equation 1(Equation 1) v=VS/K+S where V is the maximal velocity, S is the substrate concentration and K is the Michaelis constant for the substrate (Km). Individual saturation curves displaying substrate inhibition were fit to Equation 2(Equation 2) v=VS/K+S×(1+S/Ks) where Ks is the substrate inhibition constant.
# (§2) To determine the steady-state inhibition parameters and patterns associated with both inhibitors, PfAcAS activity was studied in the presence of variable concentrations of one substrate, ATP, acetate or CoA, fixed saturating concentration of the other two substrates (acetate and CoA, ATP and CoA, or ATP and acetate) and several fixed concentrations of inhibitor. Assay ready plates containing different concentrations of inhibitor were prepared using an Echo 550 acoustic dispenser (Labcyte Inc.). The assays were carried out as described in the previous section. […] For better comparison between both inhibitors and proteins, the ymin was fixed to zero and the ymax to 100. Inhibition data showing linear, competitive patterns in double-reciprocal plots were fit to Equation 4(Equation 4) v=VS/K(1+I/Ki)+S where Ki is the dissociation constant for the enzyme-inhibitor complex. Inhibition data showing linear, mixed inhibition patterns in double-reciprocal plots were fit to Equation 5(Equation 5) v=VS/K(1+I/Kis)+S(1+I/Kii) where Kis is the dissociation constant for the free enzyme-inhibitor complex and Kii is the dissociation constant for the enzyme-substrate-inhibitor complex. Inhibition data showing linear, uncompetitive patterns in double-reciprocal plots were fit to Equation 6(Equation 6) v=VS/K+S(1+I/Ki)
# PfAcAS T648M = biological target: T1, PfAcAS T648M (Plasmodium falciparum, UniProt C6KTB4, T648M); test: EnzChek assay, recombinant PfAcAS T648M; assay type: biochemical, P. falciparum
# T1 sequence (C6KTB4 1-997 T648M): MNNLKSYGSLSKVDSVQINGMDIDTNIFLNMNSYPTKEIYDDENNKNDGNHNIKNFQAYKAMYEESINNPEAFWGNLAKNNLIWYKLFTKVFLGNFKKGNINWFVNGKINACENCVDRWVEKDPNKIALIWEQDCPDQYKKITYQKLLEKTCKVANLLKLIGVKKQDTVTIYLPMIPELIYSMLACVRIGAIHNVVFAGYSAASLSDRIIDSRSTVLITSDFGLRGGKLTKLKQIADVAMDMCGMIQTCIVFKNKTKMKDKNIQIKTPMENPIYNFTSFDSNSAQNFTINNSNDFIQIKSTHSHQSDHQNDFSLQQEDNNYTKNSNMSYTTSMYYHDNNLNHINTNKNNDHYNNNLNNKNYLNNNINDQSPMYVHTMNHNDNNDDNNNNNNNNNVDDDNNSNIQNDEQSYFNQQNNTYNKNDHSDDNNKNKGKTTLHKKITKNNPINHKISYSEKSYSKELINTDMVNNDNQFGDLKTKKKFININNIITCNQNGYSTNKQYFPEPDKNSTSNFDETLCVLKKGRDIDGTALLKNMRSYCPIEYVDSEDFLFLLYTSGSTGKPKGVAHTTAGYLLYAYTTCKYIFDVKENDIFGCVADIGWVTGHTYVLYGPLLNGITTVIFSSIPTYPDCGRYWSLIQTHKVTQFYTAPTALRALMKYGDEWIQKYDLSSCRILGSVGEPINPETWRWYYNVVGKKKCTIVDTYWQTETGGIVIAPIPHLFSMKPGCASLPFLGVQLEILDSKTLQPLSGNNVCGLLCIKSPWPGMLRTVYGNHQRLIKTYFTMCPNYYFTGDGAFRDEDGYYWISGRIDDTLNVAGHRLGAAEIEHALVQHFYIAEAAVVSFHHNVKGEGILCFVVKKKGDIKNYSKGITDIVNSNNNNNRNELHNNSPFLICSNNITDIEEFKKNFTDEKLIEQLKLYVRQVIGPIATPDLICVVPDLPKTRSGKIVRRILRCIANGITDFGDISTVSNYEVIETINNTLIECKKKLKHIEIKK
# Protocol: as §1, §2
# HepG2 cells = test: HepG2 cytotoxicity; assay type: cell-based; details: Homo sapiens, mammalian cell cytotoxicity
# [1] = variable ATP, saturating acetate and CoA, linear uncompetitive, read-out: Ki versus ATP
# [2] = variable CoA, saturating ATP and acetate, read-out: Ki versus CoA
Compound,"MoI (mode of inhibition), Ki,ATP (PfAcAS WT; Table S6 (MMV019721 MoI))","MoI (mode of inhibition), Ki,CoA (PfAcAS WT; Table S6 (MMV019721 MoI))","MoI (mode of inhibition), Kis,acetate (PfAcAS WT; Table S6 (MMV019721 MoI))","MoI (mode of inhibition), Kis/Kii,acetate (PfAcAS WT; Table S6, fourth column (head printed MMV019721 MoI))",Ki (PfAcAS WT; [1]),Ki (PfAcAS WT; [2]),"Ki (PfAcAS WT; variable acetate, saturating ATP and CoA, linear uncompetitive, read-out: Ki versus acetate)","Hill, AcAS T648M (PfAcAS T648M)",IC50 (PfAcAS T648M),EC50 (HepG2 cells),"Kii against acetate (PfAcAS WT; linear mixed inhibition, enzyme-substrate-inhibitor complex)","Ki (PfAcAS WT; linear mixed inhibition, free enzyme-inhibitor complex, read-out: Kis against acetate)"
CCN(CC)S(=O)(=O)c1ccc(Cl)c(C(=O)Nc2ccc3nc(C)sc3c2)c1 [MMV019721],UC,C,UC,MI,200 ± 8 nM,22 ± 1 nM,150 ± 10 nM,0.81 ± 0.12,18000 ± 3200 nM,> 50000 nM,,
O=C(NNC(=O)c1csnn1)c1ccc(Cl)cc1 [MMV084978],,,,,680 ± 26 nM,690 ± 24 nM,,,> 100000 nM,> 50000 nM,390 ± 110 nM,30 ± 3 nM
